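Briefly, cells in 96-well plates were exposed to five compound concentrations for 48 h, and endpoints were estimated by linear interpolation. At the GI50, growth is halved. TGI is the concentration that stops growth completely.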
Assays:
Test in all cases: NCI anticancer screen, dose series, 48 h
MDA-MB-231 breast = test system: MDA-MB-231 breast
EKVX NSCLC = test system: EKVX NSCLC
M14 melanoma = test system: M14 melanoma
SR leukemia = test system: SR leukemia
NCI/ADR-RES ovarian = test system: NCI/ADR-RES ovarian
SK-MEL-28 melanoma = test system: SK-MEL-28 melanoma
SF-295 CNS = test system: SF-295 CNS
K-562 leukemia = test system: K-562 leukemia
NCI-H522 lung = test system: NCI-H522 lung
NCI-H226 lung = test system: NCI-H226 lung

SMILES	TGI (MDA-MB-231 breast) [µM]	TGI (EKVX NSCLC) [µM]	TGI (M14 melanoma) [µM]	TGI (SR leukemia) [µM]	TGI (NCI/ADR-RES ovarian) [µM]	TGI (SK-MEL-28 melanoma) [µM]	TGI (SF-295 CNS) [µM]	TGI (K-562 leukemia) [µM]	TGI (NCI-H522 lung) [µM]	TGI (NCI-H226 lung) [µM]	GI50 (NCI-H522 lung) [µM]	GI50 (NCI-H226 lung) [µM]	GI50 (MDA-MB-231 breast) [µM]	GI50 (EKVX NSCLC) [µM]	GI50 (M14 melanoma) [µM]	GI50 (SR leukemia) [µM]	GI50 (NCI/ADR-RES ovarian) [µM]	GI50 (SK-MEL-28 melanoma) [µM]	GI50 (SF-295 CNS) [µM]	GI50 (K-562 leukemia) [µM]
OC1(c2ccc3ccccc3c2)c2ccc3ccccc3c2C2=NCCN21 (configuration not stated)	> 100	> 100	> 100	> 100	> 100	> 100	> 100	> 100	–	–	–	–	–	–	–	–	–	–	–	–
O=c1cc(-c2nc3ccccc3[nH]2)[nH]c2nc(-c3nc4ccccc4[nH]3)cc(-c3ccc(Cl)cc3)c12	35.7	> 100	62.5	46.6	91.3	–	48.2	68.8	26.1	49.2	–	–	–	–	–	–	–	–	–	–
CCOC(=O)[C@H]1C[C@]23CN(C(=O)OC(C)(C)C)CC[C@H]2CCC2(SCCCS2)[C@@H]3N1C	–	90.4	> 100	76.5	> 100	> 100	> 100	> 100	> 100	> 100	–	–	–	–	–	–	–	–	–	–
Cc1ccc(S(=O)(=O)NCCSS(=O)(=O)c2ccc(C)cc2)cc1	> 100	–	–	39	72.3	76.6	> 100	> 100	38.5	49.6	–	–	–	–	–	–	–	–	–	–
CCOc1cc(NC(C)=O)ccc1C(=O)NN1C(=O)CSC1c1ccc(O)c(OC)c1 (configuration not stated)	> 100	> 100	> 100	> 100	> 100	> 100	> 100	> 100	> 100	> 100	–	–	–	–	–	–	–	–	–	–
C=CCC1=CC2(OC)C(=O)C(OC)(OC)C1C1C(OC)(OC)C(=O)C(OC)=CC12CC=C (configuration not stated)	> 100	> 100	> 100	–	> 100	> 100	> 100	> 100	> 100	–	–	–	–	–	–	–	–	–	–	–
CCOc1ccc2c(c1)NC(=O)C(C1OC(c3ccccc3)=CC1=O)S2 (configuration not stated)	60.5	62.3	> 100	46.1	67.1	68.8	83.5	68.7	25.7	67.5	–	–	–	–	–	–	–	–	–	–
FC(F)(F)C1=NC(=NNc2nnc(-c3ccccc3)c(-c3ccccc3)n2)N=C(C(F)(F)F)C1	–	> 100	–	–	> 100	> 100	> 100	> 100	53.6	> 100	–	–	–	–	–	–	–	–	–	–
CC(C)Cc1cccc(C(C)C)c1NC(=O)CCC(=O)N/N=C1\C(=N/NC(=O)CCC(=O)Nc2c(C(C)C)cccc2C(C)C)C(c2ccc3c(c2)OCO3)Oc2ccccc21 (configuration not stated)	–	> 100	> 100	> 100	–	> 100	> 100	> 100	> 100	> 100	–	–	–	–	–	–	–	–	–	–
CN(C)CCC(C(=O)C(C)(C)C)c1ccccn1 (configuration not stated)	> 100	> 100	> 100	> 100	> 100	> 100	> 100	> 100	> 100	> 100	–	–	–	–	–	–	–	–	–	–
C=C1C(=O)OC2/C=C(\C)CC(O)/C=C(/CO)CC(OC(=O)/C(C)=C/C)C12 (configuration not stated)	–	59.1	–	–	538	41.1	401	64.4	26.4	91	–	–	–	–	–	–	–	–	–	–
C[C@H](O)C(=O)SC[C@H](NC(=O)CC[C@@H](N)C(=O)O)C(=O)NCC(=O)O	–	> 100	> 100	> 100	–	> 100	> 100	> 100	> 100	> 100	–	–	–	–	–	–	–	–	–	–
CS(=O)(=O)OCc1c(O)c2c(c(O)c1COS(C)(=O)=O)C(=O)C=CC2=O	–	> 100	> 100	> 100	–	> 100	> 100	> 100	> 100	> 100	–	–	–	–	–	–	–	–	–	–
CC[N+](CC)(CC)/C(=N/S(=O)(=O)c1cc(C)c(Cl)cc1S)[N-]S(=O)(=O)c1ccc(Cl)cc1	> 100	> 100	> 100	–	> 100	> 100	> 100	> 100	> 100	> 100	–	–	–	–	–	–	–	–	–	–
COc1ccc(-n2cc(-c3ccc(OC)c(OC)c3)nc2SCc2ccccc2)cc1Cl	> 100	64.7	> 100	51.1	> 100	> 100	> 100	39.3	98.4	> 100	13.2	40.4	26.9	13.8	26	16	42.7	27.4	17.4	9.05
CC(O)=NC(Cc1ccc2ccccc2c1)C(O)=NC(Cc1ccc(Cl)cc1)C(O)=NC(Cc1c[nH]c2ccccc12)C(O)=NC(CO)C(O)=NC(Cc1ccc(O)cc1)C(O)=NC(CCCN=C(N)N)C(O)=NC(CC(C)C)C(O)=NC(CCCN=C(N)N)C(=O)N1CCCC1C(O)=NC(C)C(=N)O (configuration not stated)	> 100	> 100	> 100	> 100	> 100	–	> 100	> 100	93	80.7	–	–	–	–	–	–	–	–	–	–
C[C@]12CC[C@H](O)CC1=CC[C@@H]1[C@@H]2CC[C@]2(C)C(=O)CC[C@@H]12	–	> 100	> 100	> 100	> 100	> 100	> 100	–	> 100	> 100	–	–	–	–	–	–	–	–	–	–
CCCc1ccc(OCC(=O)N/N=C/c2c(-c3ccccc3)[nH]c3ccccc23)cc1	28.9	92.8	28.2	23.1	42.5	> 100	34.4	23.1	82	40.5	–	–	–	–	–	–	–	–	–	–
O=C(/N=C/c1c(O)c2ccccc2oc1=O)NC1CCCCC1	–	> 100	> 100	> 100	–	> 100	–	–	–	> 100	–	–	–	–	–	–	–	–	–	–
CO[C@]12C[C@H](CNC(=O)c3cc(Br)c(Br)[nH]3)O[C@H]1NC(=O)N2	> 100	> 100	> 100	> 100	> 100	> 100	> 100	> 100	> 100	> 100	–	–	–	–	–	–	–	–	–	–
NC1=NS(=O)(=O)Nc2nc(-c3cccs3)[nH]c21	–	–	> 100	> 100	–	> 100	> 100	> 100	> 100	–	–	–	–	–	–	–	–	–	–	–
C[n+]1c(-c2ccc(/C=N\NC(=O)c3ccc(C(=O)N/N=C/c4ccc(-c5cn6ccsc6[n+]5C)cc4)cc3)cc2)cn2ccsc21	42.1	34.3	44.9	85.6	41.1	–	–	> 100	60.6	44.1	–	–	–	–	–	–	–	–	–	–
COc1c2ccoc2c(S(=O)(=O)Nc2ccc(Cl)cc2)c2oc(C)cc(=O)c12	–	> 100	–	–	> 100	> 100	> 100	> 100	> 100	> 100	–	–	–	–	–	–	–	–	–	–
